“And” between values parts separate entries of the source, which are not always exact repeats. Identical values can stand only once.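 Five compound concentrations were applied to cells in 96-well plates for 48 hours; endpoints were derived by simple linear interpolation of the resulting dose-response curve. GI50: concentration for 50% inhibition of growth. TGI: total growth inhibition.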
Experiments:
Assay in all cases: NCI anticancer screen, dose series, 48 h
SNB-19 CNS = test system: SNB-19 CNS
A549 NSCLC = test system: A549 NSCLC
SF-539 CNS = test system: SF-539 CNS
SK-OV-3 ovarian = test system: SK-OV-3 ovarian
SK-MEL-5 melanoma = test system: SK-MEL-5 melanoma
K-562 leukemia = test system: K-562 leukemia
HS 578T breast = test system: HS 578T breast
CAKI-1 renal = test system: CAKI-1 renal
MALME-3M melanoma = test system: MALME-3M melanoma
SR leukemia = test system: SR leukemia

Structure (SMILES)	TGI (SNB-19 CNS)	TGI (A549 NSCLC)	TGI (SF-539 CNS)	TGI (SK-OV-3 ovarian)	TGI (SK-MEL-5 melanoma)	TGI (K-562 leukemia)	TGI (HS 578T breast)	TGI (CAKI-1 renal)	TGI (MALME-3M melanoma)	TGI (SR leukemia)	GI50 (SNB-19 CNS)	GI50 (A549 NSCLC)	GI50 (SF-539 CNS)	GI50 (SK-OV-3 ovarian)	GI50 (SK-MEL-5 melanoma)	GI50 (K-562 leukemia)	GI50 (HS 578T breast)	GI50 (CAKI-1 renal)	GI50 (MALME-3M melanoma)	GI50 (SR leukemia)
COc1cc(C(c2cc3c(cc2O)OCO3)N2CCCCC2)cc(OC)c1OC (stereo not given)	46.9 µM	45.8 µM	33.9 µM	56.2 µM	34.6 µM	> 21.3 µM	43.5 µM	27.6 µM	26.1 µM	> 23.5 µM	–	–	–	–	–	–	–	–	–	–
CN1CCCCCC(=N\O)/C(=N/O)CCCCC1	> 100 µM	> 100 µM	> 100 µM	–	> 100 µM	> 100 µM	> 100 µM	> 100 µM	> 100 µM	> 100 µM	–	–	–	–	–	–	–	–	–	–
NC(=O)c1ccc2c(-c3ccnc(NCCCO)n3)c(-c3ccc(F)cc3)nn2c1	> 25 µM	> 25 µM	> 25 µM	> 25 µM	> 25 µM	> 25 µM	> 25 µM	> 25 µM	> 25 µM	> 25 µM	> 25 µM	> 23000 nM	> 25000 nM	> 24200 nM	> 25000 nM	> 25000 nM	> 25000 nM	> 25000 nM	> 25000 nM	> 25000 nM
O=c1[nH]ccc2nc(N3CCC(O)CC3)nc(Nc3cccc(C(F)(F)F)c3)c12	> 100 µM	> 100 µM	38.6 µM	> 100 µM	2.5 µM	> 100 µM	14.1 µM	6.3 µM	7.87 µM	26.9 µM	18.1 µM	3830 nM	5190 nM	486 nM	1230 nM	3140 nM	1930 nM	282 nM	2610 nM	707 nM
CCCN1CCN(c2ccc3nc(-c4ccc5nc(-c6cc(OC)ccc6OC)[nH]c5c4)[nH]c3c2)CC1	–	3.64 µM	28.7 µM	–	34.1 µM	–	55.6 µM	30.7 µM	40.9 µM	5.54 µM	–	1850 nM	14400 nM	–	15100 nM	–	20100 nM	15900 nM	20300 nM	2550 nM
O=C(Nc1ccc(F)cc1F)c1cc(Br)ccc1O	> 100 µM	> 100 µM	10.9 µM	3.5 µM	3.34 µM	> 100 µM	8.35 µM	6.66 µM	5.75 µM	> 100 µM	2.75 µM	3260 nM	2680 nM	530 nM	1590 nM	2420 nM	2240 nM	1760 nM	1850 nM	3050 nM
Cc1cc2cc3c(C)cc(=O)oc3c(C)c2o1	> 100 µM	> 100 µM	> 100 µM	–	> 100 µM	> 100 µM	> 100 µM	> 100 µM	> 100 µM	> 100 µM	–	–	–	–	–	–	–	–	–	–
O=C(CC12CC3CC(CC(C3)C1)C2)NCCOCCOCCOCCNC(=O)c1cc2c(o1)C(=O)c1ccccc1C2=O	7.63 µM	1.18 µM	2.78 µM	6.06 µM	0.343 µM	5.32 µM	6.59 µM	5.74 µM	0.328 µM	8.76 µM	1.32 µM	331 nM	1440 nM	2550 nM	181 nM	1320 nM	1990 nM	1930 nM	157 nM	1670 nM
Cc1cccc(Cl)c1NC(=O)/C=C/c1ccccc1	> 100 µM	> 100 µM	> 100 µM	> 100 µM	> 100 µM	> 100 µM	> 100 µM	> 100 µM	> 100 µM	> 100 µM	–	–	–	–	–	–	–	–	–	–
O=C1NC(=S)NC(=O)C1=Cc1cccc2cc3ccccc3cc12	5.32 µM	12.7 µM	3.1 µM	8.79 µM	5.23 µM	> 24 µM	> 25.6 µM	4.15 µM	4.17 µM	> 20 µM	–	–	–	–	–	–	–	–	–	–
O=[N+]([O-])c1ccc(N=Nc2c(O)ccc3ccccc23)cc1	> 100 µM	> 100 µM	> 100 µM	> 100 µM	> 100 µM	> 100 µM	46.6 µM and > 100 µM	> 100 µM	–	> 100 µM	–	28200 nM and > 100000 nM	–	20200 nM and > 100000 nM	–	–	18300 nM and > 100000 nM	–	–	–
NC(=N\N=C/c1cccc([N+](=O)[O-])c1)/C(N)=N\N=C/c1cccc([N+](=O)[O-])c1	> 100 µM	–	> 100 µM	> 100 µM	> 100 µM	> 100 µM	> 100 µM	> 100 µM	> 100 µM	> 100 µM	> 100 µM	–	> 100000 nM	> 100000 nM	> 100000 nM	> 100000 nM	> 100000 nM	> 100000 nM	> 100000 nM	> 100000 nM
c1cc(OCCN2CCCCC2)ccc1CNc1ccc2nc(CCC3CCCCC3)[nH]c2c1	10.4 µM	7.06 µM	3.06 µM	4.18 µM	3.01 µM	3.6 µM	4.64 µM	3.93 µM	3.14 µM	3.01 µM	3.05 µM	2540 nM	1570 nM	2070 nM	1630 nM	852 nM	1640 nM	1960 nM	1620 nM	617 nM
Cc1cc(N2CCN(c3ccnc4cc(Cl)ccc34)CC2)nc(NC2CCCCC2)n1	11 µM	4.48 µM	–	4.51 µM	3.3 µM	5.64 µM	6.62 µM	3.6 µM	3.83 µM	4.73 µM	2.98 µM	2020 nM	–	2020 nM	1730 nM	2100 nM	2100 nM	1630 nM	1890 nM	1930 nM
COc1ccc(CNc2c3ccccc3nc3ccc(OC)cc23)cc1	16 µM	7.46 µM	4.13 µM	17.2 µM	3.87 µM	11.1 µM	8.68 µM	3.72 µM	3.72 µM	5.81 µM	4.14 µM	2590 nM	1960 nM	4830 nM	1950 nM	2270 nM	2850 nM	1760 nM	1890 nM	1860 nM

Reference: PubChem BioAssay (NCI)
